ChEMBL document CHEMBL1201862, “PubChem BioAssay data set” (2004)
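These data come from cells grown in 96-well plates and exposed to compound for 48 hours at five concentrations. Abbreviation: GI50, concentration required for 50% inhibition of growth.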 Activity calls are given as the source filed them. Cut-off read from the data, not from the text of the source: active = GI50 up to about 1.1 µM and inactive = higher.

Assays:
Assay in all cases: NCI tumour cell line growth inhibition, 48 h
[1] = test system: HCT-15
[2] = test system: SF-295
[3] = test system: UACC-62
[4] = test system: SF-268
[5] = test system: MDA-MB-231
[6] = test system: M14
[7] = test system: KM12
[8] = test system: UACC-257
[9] = test system: RXF 393
[10] = test system: BT-549
[11] = test system: A498
[12] = test system: OVCAR-8
[13] = test system: HT-29
[14] = test system: Hs-578T
[15] = test system: DU-145
[16] = test system: HOP-92
[17] = test system: HCT-116
[18] = test system: HCC 2998
[19] = test system: RPMI-8226
[20] = test system: SF-539
[21] = test system: SK-MEL-28
[22] = test system: SN12C
[23] = test system: Malme-3M
[24] = test system: OVCAR-4
[25] = test system: 786-0
[26] = test system: U-251
[27] = test system: COLO 205
[28] = test system: ACHN
[29] = test system: NCI-H522
[30] = test system: A549
[31] = test system: SNB-75
[32] = test system: OVCAR-5
[33] = test system: NCI-H226
[34] = test system: MDA-N
[35] = test system: EKVX
[36] = test system: MOLT-4
[37] = test system: NCI-H460
[38] = test system: NCI-H23
[39] = test system: HL-60
[40] = test system: CCRF-CEM
[41] = test system: SK-OV-3
[42] = test system: TK-10
[43] = test system: SW-620
[44] = test system: LOX IMVI
[45] = test system: CAKI-1
[46] = test system: HOP-62
[47] = test system: NCI/ADR-RES
[48] = test system: T47D
[49] = test system: MCF7
[50] = test system: MDA-MB-435
[51] = test system: SR
[52] = test system: K562
[53] = test system: SK-MEL-2
[54] = test system: UO-31
[55] = test system: OVCAR-3
[56] = test system: SK-MEL-5
[57] = test system: SNB-19
[58] = test system: PC-3
[59] = test system: IGROV-1

With `COc1cc2[nH]c(=O)c3cc(-c4ccccc4)cc4c(Cl)nc(c1OC)c2c43` the GI50 [1] was 9.55 µM, the GI50 [2] was > 49.4 µM (inactive) and the GI50 [3] was 14.1 µM (inactive). For the same molecule, the GI50 [4] was 16.1 µM (inactive), the GI50 [5] was 3.64 µM (inactive) and the GI50 [6] was 19.4 µM (inactive). The GI50 [7] was 20 µM (inactive), the GI50 [8] was 4.69 µM (inactive) and the GI50 [9] was 23.3 µM (inactive). The GI50 [10] was 43.2 µM (inactive), the GI50 [11] was > 100 µM (inactive) and the GI50 [12] was 5.14 µM (inactive). The GI50 [13] was 3.92 µM (inactive), the GI50 [14] was > 100 µM (inactive) and the GI50 [15] was 23.6 µM (inactive). The GI50 [16] was 41.8 µM (inactive), the GI50 [17] was 3.1 µM (inactive) and the GI50 [18] was 23.6 µM (inactive). For the same molecule, the GI50 [19] was 13.2 µM (inactive), the GI50 [20] was 0.63 µM (active) and the GI50 [21] was 32.1 µM (inactive). For the same molecule, the GI50 [22] was 11.7 µM (inactive), the GI50 [23] was 6.32 µM (inactive) and the GI50 [24] was 9.27 µM (inactive). For the same molecule, the GI50 [25] was 6.59 µM (inactive), the GI50 [26] was 16.4 µM (inactive) and the GI50 [27] was 11.6 µM (inactive). The GI50 [28] was 15.6 µM (inactive), the GI50 [29] was 3.77 µM (inactive) and the GI50 [30] was 23.2 µM (inactive). For the same molecule, the GI50 [31] was > 39.4 µM (inactive), the GI50 [32] was 49.4 µM (inactive) and the GI50 [33] was > 70.1 µM (inactive). For the same molecule, the GI50 [34] was 3.86 µM (inactive), the GI50 [35] was 14 µM (inactive) and the GI50 [36] was 4.63 µM (inactive). The GI50 [37] was 21 µM (inactive), the GI50 [38] was 15.3 µM (inactive) and the GI50 [39] was 2.17 µM (inactive). The GI50 [40] was 4.88 µM (inactive), the GI50 [41] was > 47.8 µM (inactive) and the GI50 [42] was 29.6 µM (inactive). The GI50 [43] was 3.37 µM (inactive), the GI50 [44] was 6.78 µM (inactive) and the GI50 [45] was 24.4 µM (inactive). The GI50 [46] was 32.6 µM (inactive), the GI50 [47] was 7.35 µM (inactive) and the GI50 [48] was 24.4 µM (inactive). The GI50 [49] was 2.36 µM (inactive), the GI50 [50] was 2.81 µM (inactive) and the GI50 [51] was 9.89 µM (inactive). For the same molecule, the GI50 [52] was 38.2 µM (inactive), the GI50 [53] was 15.1 µM (inactive) and the GI50 [54] was 19.2 µM (inactive). For the same molecule, the GI50 [55] was 3.79 µM (inactive), the GI50 [56] was 12.5 µM (inactive) and the GI50 [57] was 28.1 µM (inactive). The GI50 [58] was 4.86 µM (inactive) and the GI50 [59] was 19.1 µM (inactive).

For `O=C1OC(OC/C(Br)=C(\Br)COC2OC(=O)C(Cl)=C2Cl)C(Cl)=C1Cl` (configuration not stated), the GI50 [1] was 2.8 µM, the GI50 [2] was 18.3 µM (inactive) and the GI50 [3] was 6.3 µM (inactive). The GI50 [4] was 8.43 µM (inactive), the GI50 [5] was 4.74 µM (inactive) and the GI50 [6] was 3.66 µM (inactive). The GI50 [7] was 15.2 µM (inactive), the GI50 [8] was 9.68 µM (inactive) and the GI50 [9] was 2.39 µM (inactive). For the same molecule, the GI50 [10] was 2.67 µM (inactive), the GI50 [11] was 19.5 µM (inactive) and the GI50 [12] was 2.4 µM (inactive). The GI50 [13] was 2.55 µM (inactive), the GI50 [14] was 5.57 µM (inactive) and the GI50 [15] was 15.1 µM (inactive). The GI50 [16] was 1.05 µM (active), the GI50 [17] was 1.86 µM (inactive) and the GI50 [18] was 17.9 µM (inactive). For the same molecule, the GI50 [19] was 1.08 µM (active), the GI50 [20] was 6.89 µM (inactive) and the GI50 [21] was 7.82 µM (inactive). For the same molecule, the GI50 [22] was 5.64 µM (inactive), the GI50 [23] was 2.55 µM (inactive) and the GI50 [24] was 7.6 µM (inactive). The GI50 [25] was 2.51 µM (inactive), the GI50 [26] was 4.58 µM (inactive) and the GI50 [27] was 1.67 µM (inactive). For the same molecule, the GI50 [28] was 5.97 µM (inactive), the GI50 [29] was 1.71 µM (inactive) and the GI50 [30] was 14.9 µM (inactive). The GI50 [31] was 15.9 µM (inactive), the GI50 [32] was 12.9 µM (inactive) and the GI50 [33] was 12.8 µM (inactive). The GI50 [34] was 3.65 µM (inactive), the GI50 [35] was 9.57 µM (inactive) and the GI50 [36] was 0.807 µM (active). For the same molecule, the GI50 [37] was 13.2 µM (inactive), the GI50 [38] was 3.18 µM (inactive) and the GI50 [39] was 0.324 µM (active). For the same molecule, the GI50 [40] was 0.659 µM (active), the GI50 [41] was 22.2 µM (inactive) and the GI50 [42] was 4.67 µM (inactive). For the same molecule, the GI50 [43] was 2.39 µM (inactive), the GI50 [44] was 2.58 µM (inactive) and the GI50 [45] was 2.26 µM (inactive). The GI50 [46] was 14.5 µM (inactive), the GI50 [47] was 4.92 µM (inactive) and the GI50 [48] was 12.6 µM (inactive). For the same molecule, the GI50 [49] was 4.41 µM (inactive), the GI50 [50] was 7.24 µM (inactive) and the GI50 [51] was 0.9 µM (active). For the same molecule, the GI50 [52] was 1.14 µM (inactive), the GI50 [53] was 19.5 µM (inactive) and the GI50 [54] was 3.18 µM (inactive). The GI50 [55] was 3.95 µM (inactive), the GI50 [56] was 8.83 µM (inactive) and the GI50 [57] was 17.1 µM (inactive). The GI50 [58] was 14.1 µM (inactive) and the GI50 [59] was 12.3 µM (inactive).

With `Cc1cc(C)c2c(O)cc(-c3cccc(F)c3)nc2n1` the GI50 [1] was 0.0495 µM, the GI50 [2] was 0.0348 µM (active) and the GI50 [3] was < 0.0284 µM (active). The GI50 [4] was 1.44 µM (inactive), the GI50 [5] was 0.42 µM (active) and the GI50 [6] was 0.0521 µM (active). The GI50 [7] was 0.0351 µM (active), the GI50 [8] was 10.4 µM (inactive) and the GI50 [9] was 0.163 µM (active). The GI50 [10] was 0.175 µM (active), the GI50 [11] was 0.274 µM (active) and the GI50 [12] was 0.261 µM (active). The GI50 [13] was 0.0405 µM (active), the GI50 [14] was 0.0614 µM (active) and the GI50 [15] was 0.215 µM (active). For the same molecule, the GI50 [16] was < 0.01 µM (active), the GI50 [17] was < 0.0186 µM (active) and the GI50 [18] was 0.301 µM (active). The GI50 [19] was 0.139 µM (active), the GI50 [20] was 0.0944 µM (active) and the GI50 [21] was 0.115 µM (active). The GI50 [22] was 0.299 µM (active), the GI50 [23] was 0.0614 µM (active) and the GI50 [24] was 4.08 µM (inactive). For the same molecule, the GI50 [25] was 0.177 µM (active), the GI50 [26] was 0.0724 µM (active) and the GI50 [27] was 0.043 µM (active). For the same molecule, the GI50 [28] was 0.0953 µM (active), the GI50 [29] was 0.03 µM (active) and the GI50 [30] was 0.0847 µM (active). For the same molecule, the GI50 [31] was 0.0692 µM (active), the GI50 [32] was 0.399 µM (active) and the GI50 [33] was 0.168 µM (active). For the same molecule, the GI50 [34] was 0.0116 µM (active), the GI50 [35] was 0.45 µM (active) and the GI50 [36] was 0.22 µM (active). For the same molecule, the GI50 [37] was 0.0738 µM (active), the GI50 [38] was 0.294 µM (active) and the GI50 [39] was 0.0312 µM (active). For the same molecule, the GI50 [40] was 0.172 µM (active), the GI50 [41] was 0.158 µM (active) and the GI50 [42] was 23.7 µM (inactive). The GI50 [43] was < 0.0194 µM (active), the GI50 [44] was 0.191 µM (active) and the GI50 [45] was 0.0536 µM (active). The GI50 [46] was 0.158 µM (active), the GI50 [47] was 0.0422 µM (active) and the GI50 [48] was 0.232 µM (active). The GI50 [49] was 0.0308 µM (active), the GI50 [50] was < 0.01 µM (active) and the GI50 [51] was 0.0169 µM (active). For the same molecule, the GI50 [52] was < 0.0175 µM (active), the GI50 [53] was 0.098 µM (active) and the GI50 [54] was 12.9 µM (inactive). For the same molecule, the GI50 [55] was 0.025 µM (active), the GI50 [56] was 0.0422 µM (active) and the GI50 [57] was 0.136 µM (active). For the same molecule, the GI50 [58] was 0.0718 µM (active) and the GI50 [59] was 0.0766 µM (active).
